These results are taken from patent publication US20260158020A1, “COMPOSITIONS AND USES THEREOF” (BENEVOLENTAI CAMBRIDGE LIMITED, priority 2020, published 2026).

The Kd is the concentration at which binding is half-saturated.

Read-outs that look alike come from different tables or passages of the source.

Data set [1] has as its system T1, other PDE family members.
T1 construct: other: isolated enzyme biochemical assays; literature (Grauer 2009; Kunitomo 2014)
Particulars: isolated enzyme biochemical assays; literature (Grauer 2009; Kunitomo 2014); read-out: IC50s for other PDE family members; cited from earlier work.

The test system of data set [2] is isolated human neutrophils. Put plainly: In vitro assay of IL-8 neutrophil activation. The data set is classed as cell-based. The conditions noted are these: FIG. 3.
For data set [3], the system named is inflamed colonic mucosa from ulcerative colitis patients. Put plainly: Ex-vivo culture of colon biopsies from ulcerative colitis patients, cytokine release (Method 1). Particulars: colon biopsy samples from two UC patients, vs DMSO vehicle, PF-02545920 0.1 and 1 μM, TAK-063 1 μM, FIGS. 4 and 5. Type of data set: cell-based, human. The procedure:
The effect of selective PDE10 inhibition was tested on inflamed colonic mucosa from ulcerative colitis patients taken during routine endoscopy (Method 1 detailed below). These samples retain a disease phenotype in ex-vivo culture and secrete high basal levels of inflammatory cytokines. The effect of selective PDE10 inhibition on levels of the inflammatory cytokines IL-8 and IL-6 released from these tissue samples was measured.
These colon biopsies retain an inflammatory phenotype and secrete high levels of inflammatory cytokines in ex-vivo culture. […] The doses tested of each inhibitor will result in selective PDE10A inhibition over the other PDE family members.
Biopsy tissue was obtained from inflamed colonic mucosa from ulcerative colitis patients during routine endoscopy. Ex-vivo biopsy cultures for the analysis of inflammatory cytokine biomarkers were run as previously described (Vossenkämper A. et al. A CD3-specific antibody reduces cytokine production and alters phosphoprotein profiles in intestinal tissues from patients with inflammatory bowel disease. Gastroenterology, 2014, 147, 172-183). […] Supernatants collected at the end of the experiment were snap-frozen and stored at −70° C. For the measurement of cytokines, the frozen culture supernatants were thawed and analysed for levels of the inflammatory cytokines using Luminex cytokine assay kits (R&D Systems) and an R&D Systems MAGPIX® analyser. Mean values±SDs were calculated for the levels of spontaneous cytokine production measured in biopsy culture supernatants from each treatment group.

The subject of data set [4] is inflamed colonic mucosa from treatment-refractory ulcerative colitis patients. Put plainly: Ex-vivo culture of inflamed colon tissue from surgical resection of treatment-refractory UC patients, TNFα release (Method 2). Type of data set: cell-based, human. Particulars: colon samples from two treatment-refractory UC patients, with SEB, about 18 h, vs DMSO vehicle; printed 1 M (FIG. 6: 1 μM).

Data set [5] has as its system rodents with induced memory deficits. The conditions noted are these: oral, 0.1 to 3 mg/kg; cited from earlier work.
The subject of another data set is rats. The conditions noted are these: cited from earlier work.
The conditions of data set [6]: oral, rodents; cited from earlier work.
Another data set deals with human PDE10 (Homo sapiens, UniProt Q9Y233). Particulars: cited from earlier work.
human PDE10, sequence (Q9Y233 whole entry): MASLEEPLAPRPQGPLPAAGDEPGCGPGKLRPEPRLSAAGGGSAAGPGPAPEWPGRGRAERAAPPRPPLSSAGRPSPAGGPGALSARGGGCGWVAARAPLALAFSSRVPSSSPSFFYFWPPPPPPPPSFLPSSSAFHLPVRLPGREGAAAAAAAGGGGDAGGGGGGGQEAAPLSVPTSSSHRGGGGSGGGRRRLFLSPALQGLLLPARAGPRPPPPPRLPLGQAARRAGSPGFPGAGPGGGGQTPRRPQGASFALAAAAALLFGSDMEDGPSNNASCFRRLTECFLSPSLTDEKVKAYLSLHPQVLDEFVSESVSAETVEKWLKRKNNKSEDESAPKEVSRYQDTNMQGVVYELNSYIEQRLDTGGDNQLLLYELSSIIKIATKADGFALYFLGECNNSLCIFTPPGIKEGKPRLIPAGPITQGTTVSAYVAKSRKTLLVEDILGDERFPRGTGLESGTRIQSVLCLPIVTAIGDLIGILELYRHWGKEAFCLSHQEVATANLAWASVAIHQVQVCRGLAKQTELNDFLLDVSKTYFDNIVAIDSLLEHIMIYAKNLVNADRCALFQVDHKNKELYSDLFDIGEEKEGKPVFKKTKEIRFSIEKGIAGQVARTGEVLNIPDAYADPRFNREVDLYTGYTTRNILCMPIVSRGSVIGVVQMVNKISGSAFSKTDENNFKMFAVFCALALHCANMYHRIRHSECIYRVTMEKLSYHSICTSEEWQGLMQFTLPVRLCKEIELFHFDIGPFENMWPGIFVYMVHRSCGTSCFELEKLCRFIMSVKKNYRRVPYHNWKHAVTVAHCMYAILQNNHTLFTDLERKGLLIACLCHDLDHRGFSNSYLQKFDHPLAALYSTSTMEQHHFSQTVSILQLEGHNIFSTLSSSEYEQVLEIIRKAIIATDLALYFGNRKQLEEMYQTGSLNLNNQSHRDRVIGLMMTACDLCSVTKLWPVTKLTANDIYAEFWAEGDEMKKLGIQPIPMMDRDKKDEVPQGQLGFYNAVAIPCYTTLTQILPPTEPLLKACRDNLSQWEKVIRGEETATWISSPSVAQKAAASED
In data set [7] the test system is other PDE family members. Particulars: cited from earlier work.
The subject of data set [8] is rat models relevant to schizophrenia. Particulars: 0.1-0.3 mg/kg; cited from earlier work.
Data set [9] has the same test system. The conditions noted are these: 0.1-0.3 mg/kg; cited from earlier work. This is another data set of the same source.
The next data set concerns the target T2, rat PDE10 (Rattus norvegicus, UniProt Q9QYJ6).
T2 sequence (Q9QYJ6 1-794): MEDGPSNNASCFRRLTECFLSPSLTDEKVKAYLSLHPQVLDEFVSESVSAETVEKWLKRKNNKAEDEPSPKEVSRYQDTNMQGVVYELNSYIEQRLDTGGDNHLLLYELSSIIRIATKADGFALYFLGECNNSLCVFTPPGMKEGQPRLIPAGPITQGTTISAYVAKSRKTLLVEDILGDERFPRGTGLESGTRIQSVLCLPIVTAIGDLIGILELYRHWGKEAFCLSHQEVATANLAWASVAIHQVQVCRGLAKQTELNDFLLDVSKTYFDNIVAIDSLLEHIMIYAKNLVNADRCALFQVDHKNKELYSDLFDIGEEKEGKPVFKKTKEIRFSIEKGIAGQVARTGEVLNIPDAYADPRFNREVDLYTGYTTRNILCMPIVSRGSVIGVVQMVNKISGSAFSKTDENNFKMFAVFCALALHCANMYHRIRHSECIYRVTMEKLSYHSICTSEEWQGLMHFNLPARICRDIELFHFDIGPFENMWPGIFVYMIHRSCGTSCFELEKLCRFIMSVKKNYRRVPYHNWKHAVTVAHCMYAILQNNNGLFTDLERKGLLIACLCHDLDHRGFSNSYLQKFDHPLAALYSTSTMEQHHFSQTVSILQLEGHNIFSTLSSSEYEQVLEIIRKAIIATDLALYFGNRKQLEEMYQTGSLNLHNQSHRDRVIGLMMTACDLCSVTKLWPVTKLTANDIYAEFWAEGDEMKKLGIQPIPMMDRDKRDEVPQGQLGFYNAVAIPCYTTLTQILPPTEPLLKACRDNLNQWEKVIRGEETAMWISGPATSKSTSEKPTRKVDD
Particulars: cited from earlier work.

Data set [10] deals with T3, PDE10A (Homo sapiens, UniProt Q9Y233). Particulars: cited from earlier work.
T3 sequence (Q9Y233 whole entry): as the sequence (Q9Y233 whole entry) above
For data set [11], the system named is animals, conditioned avoidance response model. The conditions noted are these: cited from earlier work.
Data set [12] deals with T3, PDE10A. Particulars: read-out: binding affinity (Kd) PDE10A; cited from earlier work.
The conditions of data set [13]: cited from earlier work.

Regarding `Cn1cc(-c2ccncc2)c(-c2ccc(OCc3ccc4ccccc4n3)cc2)n1` [PF-02545920, 2-[[4-(1-methyl-4-pyridin-4-ylpyrazol-3-yl)phenoxy]methyl]quinolone], in the data set on other PDE family members [1], the IC50 was over 1000 nM. Also, in data set [2], the “IL-8 induced neutrophil activation” value is listed as “dose dependently inhibited”. Also, in [3], the “secreted levels of IL-6” value is reported as “significantly reduced” and the “secreted levels of IL-8” value was “significantly reduced”. The “secreted levels of TNFα” value in data set [4] is listed as “significantly reduced”.

`COc1cc2ncnc(N3CC[C@@H](Oc4cnc5ccccc5n4)C3)c2cc1OC` [PQ-10, 6,7-dimethoxy-4-[(3R)-3-quinoxalin-2-yloxypyrrolidin-1-yl]quinazoline]: the induced memory defects entry in [5] is “reversed”. Besides, in the data set on rats, the “basic auditory information processing” value is “enhances”. Further, the brain penetration result in data set [6] is “highly brain penetrant”.

Take `Cc1ncc(C)n2nc(/C=C/c3nc(N4CCCC4)cc(N4CCOCC4)n3)nc12` [PDM-042, (E)-4-(2-(2-(5,8-dimethyl-[1,2,4]triazolo[1,5-a]pyrazin-2-yl)vinyl)-6-(pyrrolidin-1-yl)pyrimidin-4-yl) morpholine]: the IC50 on human PDE10 and at rat PDE10 was under 1 nM in each case. The “selectivity over other PDE families / family members / phosphodiesterases” value in the data set with other PDE family members [7] is “more than 1000 fold”. Further, the conditioned avoidance response result in data set [8] is “attenuated”. Also, the MK-801-induced hyperlocomotion entry in data set [9] is “significantly antagonized”. Besides, in data set [9], the spontaneous locomotor activity entry is “without affecting”.

For the compound `COc1cn(-c2ccc(-n3cccn3)cc2F)nc(-c2ccnn2-c2ccccc2)c1=O` [TAK-063, 1-(2-fluoro-4-pyrazol-1-ylphenyl)-5-methoxy-3-(2-phenylpyrazol-3-yl)pyridazin-4-one], the IC50 in the data set on other PDE family members [1] was over 5000 nM. Moreover, in data set [3], the “secreted levels of IL-6” value is “significantly reduced” and the “secreted levels of IL-8” value is given as “significantly reduced”.

With `CCNC(=O)c1sc(Nc2nc(Cl)cc(NCc3cccnc3)n2)nc1C` [BMS-843496, 2-((4-chloro-6-((pyridin-3-ylmethyl)amino)pyrimidin-2-yl)amino)-N-ethyl-4-methylthiazole-5-carboxamide], the IC50 on PDE10A [10] was 2.11 nM. For the same compound, the “selectivity over other PDE families / family members / phosphodiesterases” value with other PDE family members [7] was over 100 fold. In addition, the “antipsychotic effects, conditioned avoidance response model” value in data set [11] is given as “correlated with antipsychotic effects”. In addition, the Kd at PDE10A [12] was 0.15 nM.

Regarding `CC(=O)N1CCC(c2nccnc2Oc2ccc(C(=O)c3nc4ccccc4[nH]3)cc2)CC1` [AMG-579, 1-[4-[3-[4-(1H-benzimidazole-2-carbonyl)phenoxy]pyrazin-2-yl]piperidin-1-yl]ethanone], the oral bioavailability result in [13] is “orally bioavailable”. The IC50 in the data set with other PDE family members [7] (read-out: IC50 against all other PDE isoforms) was over 30000 nM.
